Here are results for 36 compounds from patent US8329726B2, “Inhibitors of VEGF receptor and HGF receptor signaling” (MethylGene Inc., priority 2005, dated 2012).

Test [1] concerns DU145. The experiment in a line: DU145 scattering inhibition (HGF dependent scattering). The test is classed as cell-based. The following applies: Homo sapiens, DU-145; HGF dependent scattering, DU145 cells; read-out: DU145 SCATTERING INHIB IC50. An excerpt: (§1) HGF has well known activity in terms of inducing scattering and migration (wound healing) (Wells et al., Cell Motil Cytoskeleton. 2005 November 62(3):180-94; Miura et al., Urology 2001 December 58(6):1064-9; Nishimura et al., Int J Urol. 1998 May 5(3):276-81; Wang et al., Mol Cancer Ther. 2003 November; 2(11):1085-92; and Christensen et al., Cancer Res. 2003 Nov. 1; 63(21):7345-55).

The test system of test [2] is A549. In words: A549 wound healing inhibition (HGF dependent migration). The class given is cell-based. The following applies: Homo sapiens, A549 cells, read-out: A549 WOUND HEALING INHIB IC50.
Description: as §1

For test [3], the target named is T1, VEGF receptor KDR (Homo sapiens, UniProt P35968).
T1 construct: made in house; host or cells: Sf9 cells (Spodoptera frugiperda), baculovirus
T1 sequence (P35968 806-1356): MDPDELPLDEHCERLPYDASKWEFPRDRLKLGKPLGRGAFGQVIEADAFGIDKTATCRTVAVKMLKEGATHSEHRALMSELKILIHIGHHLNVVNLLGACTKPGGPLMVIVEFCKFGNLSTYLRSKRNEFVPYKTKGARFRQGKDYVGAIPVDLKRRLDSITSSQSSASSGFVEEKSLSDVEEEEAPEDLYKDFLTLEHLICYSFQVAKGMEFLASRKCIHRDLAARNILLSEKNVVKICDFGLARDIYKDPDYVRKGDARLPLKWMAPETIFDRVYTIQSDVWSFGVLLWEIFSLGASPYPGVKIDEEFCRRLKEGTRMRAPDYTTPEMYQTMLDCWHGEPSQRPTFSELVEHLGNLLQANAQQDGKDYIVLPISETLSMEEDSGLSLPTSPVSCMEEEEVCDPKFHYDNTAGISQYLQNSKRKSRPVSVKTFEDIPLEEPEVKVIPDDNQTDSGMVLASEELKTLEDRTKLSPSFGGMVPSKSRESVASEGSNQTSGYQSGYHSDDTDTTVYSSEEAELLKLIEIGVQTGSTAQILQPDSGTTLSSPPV
In words: In vitro receptor tyrosine kinase assay (DELFIA), VEGF receptor KDR. The class given is biochemical. The following applies: read-out: VEGFR IC50.

Test [4] has as its target T2, recombinant human c-Met/HGF receptor (Homo sapiens, UniProt P08581).
T2 construct: His tag (pBlueBacHis2A vector); made in house; host or cells: Hi-5 cells (Trichoplusia ni), baculovirus
The experiment in a line: In vitro receptor tyrosine kinase assay (DELFIA), c-Met/HGF receptor. The test is classed as biochemical. The following applies: read-out: CMET IC50. Here is the method: Cell pellets were frozen at −80° C. until purification was performed.
The coated plates were washed and stored at 4° C. […] After incubation, the kinase reactions were quenched with EDTA and the plates were washed.

T2 sequence (P08581 1078-1337): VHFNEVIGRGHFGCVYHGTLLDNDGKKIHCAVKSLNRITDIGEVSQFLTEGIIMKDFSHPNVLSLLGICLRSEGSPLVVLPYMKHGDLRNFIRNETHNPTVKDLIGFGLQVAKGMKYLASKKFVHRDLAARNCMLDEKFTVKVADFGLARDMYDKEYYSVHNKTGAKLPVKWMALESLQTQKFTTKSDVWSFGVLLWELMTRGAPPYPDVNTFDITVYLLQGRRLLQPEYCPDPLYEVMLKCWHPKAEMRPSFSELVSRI

One may read the IC50 as the concentration at which inhibition is half-maximal. Regarding `CN1CCN(Cc2ccc(-c3cc4nccc(Oc5ccc(NC(=O)CC(=O)Nc6ccccc6)cc5F)c4s3)cc2)CC1`, the 50% inhibitory concentration (IC50) is under 1 µM in test [1], 1 to 5 µM in test [2], under 0.05 µM in test [3] and under 0.05 µM in test [4].
With `COc1ccccc1NC(=O)C1(C(=O)Nc2ccc(Oc3ccnc4cc(-c5cn(CCN6CCCC6)cn5)sc34)c(F)c2)CC1`, the IC50 in test [1] was under 1 µM; in test [2] it was under 1 µM; in test [3] it was under 0.05 µM; in test [4], under 0.05 µM.
In the case of `CCn1cnc(-c2cc3nccc(Oc4ccc(NC(=O)CC(Nc5ccccc5)C(F)(F)F)cc4F)c3s2)c1` (stereo not drawn), the IC50 in test [1] was 1 to 5 µM; in test [2], 1 to 5 µM; in test [3], 0.05 to 0.25 µM; in test [4] it was 0.05 to 0.25 µM.
Turning to `CCn1cnc(-c2cc3nccc(Oc4ccc(NC(=O)N5CCN(c6ccc(F)cc6)C5=O)cc4F)c3s2)c1`, the concentration for half-maximal inhibition (IC50) in test [1] is under 1 µM; in test [2] it was under 1 µM; in test [3] it was under 0.05 µM; in test [4], under 0.05 µM.
For the compound `CCn1cnc(-c2cc3nccc(Oc4ccc(NC(=O)CC(=O)Nc5ccccc5O)cc4F)c3s2)c1`, the 50% inhibitory concentration (IC50) in test [1] is 1 to 5 µM; in test [2], 1 to 5 µM; in test [3] it was under 0.05 µM; in test [4], under 0.05 µM.
Consider `CCCn1cnc(-c2cc3nccc(Oc4ccc(NC(=O)CC(=O)Nc5ccc(F)cc5)cc4F)c3s2)c1`, for which the IC50 was under 1 µM in test [1], under 1 µM in test [2], under 0.05 µM in test [3] and under 0.05 µM in test [4].
Take `O=C(Nc1ccc(Oc2ccnc3cc(-c4cn(CCN5CCCC5)cn4)sc23)c(F)c1)C1(C(=O)Nc2ccccc2F)CC1`: the half-maximal inhibitory concentration (IC50) was under 1 µM in test [1], 1 to 5 µM in test [2], under 0.05 µM in test [3] and under 0.05 µM in test [4].
Consider `CN(C(=O)CC(=O)Nc1ccc(Oc2ccnc3cc(-c4cn(CCCN5CCCC5)cn4)sc23)c(F)c1)c1ccccc1`, for which the IC50 is under 1 µM in test [1], 1 to 5 µM in test [2], under 0.05 µM in test [3] and under 0.05 µM in test [4].
With `COCCNCc1ccc(-c2cc3nccc(Oc4ccc(NC(=O)N5CCN(c6ccc(F)cc6)C5=O)cc4F)c3s2)cc1`, the IC50 in test [1] is under 1 µM; in test [2], under 1 µM; in test [3] it was under 0.05 µM; in test [4] it was under 0.05 µM.
For the compound `CCN(CC)CCn1cnc(-c2cc3nccc(Oc4ccc(NC(=O)CC(=O)N(C)c5ccccc5)cc4F)c3s2)c1`, the IC50 was under 1 µM in test [1], under 1 µM in test [2], under 0.05 µM in test [3] and 0.05 to 0.25 µM in test [4].
`CCn1cnc(-c2cc3nccc(Oc4ccc(NC(=O)CC(=O)Nc5ccccc5C(F)(F)F)cc4F)c3s2)c1`: the IC50 in test [1] is under 1 µM; in test [2], 1 to 5 µM; in test [3], under 0.05 µM; in test [4] it was 0.05 to 0.25 µM.
In the same order, the values of `CN(C(=O)CC(=O)Nc1ccc(Oc2ccnc3cc(-c4cn(C)cn4)sc23)c(F)c1)c1ccccc1F` are 1 to 5 µM, under 1 µM, under 0.05 µM and 0.05 to 0.25 µM.
In the same order, the values of `CN(C)CCn1cnc(-c2cc3nccc(Oc4ccc(NC(=O)C5(C(=O)Nc6ccccc6)CC5)cc4F)c3s2)c1` are under 1 µM, under 1 µM, under 0.05 µM and under 0.05 µM.
On to `CN1CCN(CCN(C)Cc2ccc(-c3cc4nccc(Oc5ccc(NC(=O)CC(=O)N(C)c6ccc(F)cc6)cc5F)c4s3)cc2)CC1`, for which the concentration for half-maximal inhibition (IC50) in test [1] was under 1 µM; in test [2] it was 1 to 5 µM; in test [3] it was under 0.05 µM; in test [4], under 0.05 µM.
Consider `CCn1cnc(-c2cc3nccc(Oc4ccc(NC(=O)CC(=O)Nc5ccccc5OC)cc4F)c3s2)c1` [drawing 292], for which the concentration for half-maximal inhibition (IC50) in test [1] was under 1 µM; in test [2], 1 to 5 µM; in test [3], under 0.05 µM; in test [4], under 0.05 µM.
For `CN1CCN(Cc2ccc(-c3cc4nccc(Oc5ccc(NC(=O)C6(C(=O)Nc7ccc(F)cc7)CC6)cc5F)c4s3)cc2)CC1`, the half-maximal inhibitory concentration (IC50) was under 1 µM in test [1], under 1 µM in test [2], under 0.05 µM in test [3] and under 0.05 µM in test [4].
In the case of `O=C(Nc1ccc(Oc2ccnc3cc(-c4cn(CCCN5CCCC5)cn4)sc23)c(F)c1)C1CCN(c2ccccc2)C1=O` (stereo not drawn), the IC50 in test [1] is under 1 µM; in test [2] it was under 1 µM; in test [3], under 0.05 µM; in test [4], under 0.05 µM.
Regarding `Cn1ccnc1-c1cc2nccc(Oc3ccc(NC(=O)CC(=O)Nc4ccccc4F)cc3F)c2s1` [drawing 285], the IC50 in test [1] is under 1 µM; in test [2] it was under 1 µM; in test [3] it was under 0.05 µM; in test [4], under 0.05 µM.
In the case of `CN(C)CCn1cnc(-c2cc3nccc(Oc4ccc(NC(=O)C5(C(=O)Nc6ccccc6F)CC5)cc4F)c3s2)c1`, the half-maximal inhibitory concentration (IC50) in test [1] was under 1 µM; in test [2], under 1 µM; in test [3], under 0.05 µM; in test [4] it was under 0.05 µM.
Regarding `CN(C)Cc1cccc(-c2cc3nccc(Oc4ccc(NC(=O)CC(=O)Nc5ccccc5F)cc4F)c3s2)c1` [drawing 316], the IC50 in test [1] was under 1 µM; in test [2], 1 to 5 µM; in test [3], 0.05 to 0.25 µM; in test [4], under 0.05 µM.
`CN(c1ccc(NC(=O)C2CCN(c3ccccc3)C2=O)cc1F)c1ccnc2cc(-c3cn(C)cn3)sc12` (stereo not drawn): the concentration for half-maximal inhibition (IC50) in test [1] is 1 to 5 µM; in test [2] it was 1 to 5 µM; in test [3], over 0.5 µM; in test [4] it was 0.05 to 0.25 µM.
Regarding `Cn1ccnc1-c1cc2nccc(Oc3ccc(NC(=S)N4CCN(c5ccc(F)cc5)C4=O)cc3F)c2s1`, the half-inhibitory concentration (IC50) in test [1] was under 1 µM; in test [2], under 1 µM; in test [3], under 0.05 µM; in test [4], 0.05 to 0.25 µM.
For `CCn1cnc(-c2cc3nccc(Oc4ccc(NC(=O)N5CCN(c6ccccc6OC)C5=O)cc4F)c3s2)c1`, the IC50 was under 1 µM in test [1], 1 to 5 µM in test [2], under 0.05 µM in test [3] and under 0.05 µM in test [4].
Regarding `Cn1cnc(-c2cc3nccc(Oc4ccc(NC(=O)C5(C(=O)Nc6ccc(F)cc6)CC5)cc4F)c3s2)c1`, the half-inhibitory concentration (IC50) is under 1 µM in test [1], under 1 µM in test [2], under 0.05 µM in test [3] and under 0.05 µM in test [4].
For the compound `CCn1cnc(-c2cc3nccc(Oc4ccc(NC(=O)N5CCN(c6ccccc6)C5=O)cc4F)c3s2)c1`, the IC50 in test [1] is under 1 µM; in test [2], under 1 µM; in test [3], under 0.05 µM; in test [4], under 0.05 µM.
On to `Cn1cnc(-c2cc3nccc(Oc4ccc(NC(=O)N5CCN(c6ccccc6)C5=S)cc4F)c3s2)c1`, for which the IC50 in test [1] is over 10 µM; in test [2], over 10 µM; in test [3] it was over 0.5 µM; in test [4], over 0.5 µM.
`CN(C(=O)C1(C(=O)Nc2ccc(Oc3ccnc4cc(-c5cn(C)cn5)sc34)c(F)c2)CC1)c1ccccc1`: the IC50 in test [1] was 1 to 5 µM; in test [2], under 1 µM; in test [3] it was 0.05 to 0.25 µM; in test [4], over 0.5 µM.
The matching figures for `COc1ccccc1NC(=O)CC(=O)Nc1ccc(Oc2ccnc3cc(C#CCN(C)C)sc23)c(F)c1`: over 10 µM, over 10 µM, 0.05 to 0.25 µM and 0.05 to 0.25 µM.
The matching figures for `O=C(CC(=O)Nc1ccccc1F)Nc1ccc(Oc2ccnc3cc(-c4cccc(CN5CCOCC5)c4)sc23)c(F)c1`: 1 to 5 µM, 1 to 5 µM, 0.05 to 0.25 µM and under 0.05 µM.
`CCn1cnc(-c2cc3nccc(Oc4ccc(NC(=O)C(=O)NCCc5ccccc5OC)cc4F)c3s2)c1`: the half-maximal inhibitory concentration (IC50) in test [1] was over 10 µM; in test [2] it was 1 to 5 µM; in test [3] it was under 0.05 µM; in test [4], 0.05 to 0.25 µM.
In the same order, the values of `COc1ccccc1NC(=O)CC(=O)Nc1ccc(Oc2ccnc3cc(C(=O)N4CC(O)C4)sc23)c(F)c1` are 1 to 5 µM, 1 to 5 µM, under 0.05 µM and 0.05 to 0.25 µM.
In the same order, the values of `Cn1cnc(-c2cc3nccc(Oc4ccc(NC(=O)CC(=O)Nc5ccccc5F)cc4F)c3s2)c1` are under 1 µM, under 1 µM, under 0.05 µM and under 0.05 µM.
In the same order, the values of `CN1CCN(CCN(C)Cc2ccc(-c3cc4nccc(Oc5ccc(NC(=O)C6CCN(c7ccccc7)C6=O)cc5F)c4s3)cc2)CC1` (stereo not drawn) are under 1 µM, 1 to 5 µM, under 0.05 µM and under 0.05 µM.
On to `COc1ccccc1NC(=O)CC(=O)Nc1ccc(Oc2ccnc3cc(-c4cn(CCN(C)C)cn4)sc23)c(F)c1`, for which the IC50 in test [1] was under 1 µM; in test [2], under 1 µM; in test [3], under 0.05 µM; in test [4], 0.05 to 0.25 µM.
Take `O=C(CC(=O)Nc1ccccc1F)Nc1ccc(Oc2ccnc3cc(C#CCN4CCOCC4)sc23)c(F)c1`: the IC50 is over 10 µM in test [1], 1 to 5 µM in test [2], 0.25 to 0.5 µM in test [3] and 0.05 to 0.25 µM in test [4].
Consider `CCn1cnc(-c2cc3nccc(Oc4ccc(NC(=O)CC(=O)Nc5ccccc5F)cc4F)c3s2)c1` [drawing 293], for which the half-maximal inhibitory concentration (IC50) in test [1] was under 1 µM; in test [2], under 1 µM; in test [3] it was under 0.05 µM; in test [4] it was under 0.05 µM.
